Experiment: xn = mol fraction of the nth substance listed

NC(N)=O + O
Details | viscosity [mPa·s]
293.15 K, 100 kPa, x1 = 0.00045 | 1.018
293.15 K, 100 kPa, x1 = 0.0009 | 1.027
293.15 K, 100 kPa, x1 = 0.0013 | 1.041
293.15 K, 101 kPa, x1 = 0.0003382 | 1.002
293.15 K, 101 kPa, x1 = 0.0005695 | 1.003
293.15 K, 101 kPa, x1 = 0.0009893 | 1.003
293.15 K, 101 kPa, x1 = 0.001265 | 1.004
293.15 K, 101 kPa, x1 = 0.00161 | 1.004
293.15 K, 101 kPa, x1 = 0.002015 | 1.005
293.15 K, 101 kPa, x1 = 0.002546 | 1.006
293.15 K, 101 kPa, x1 = 0.002806 | 1.006
293.15 K, 101 kPa, x1 = 0.0486 | 0.872
293.15 K, 101 kPa, x1 = 0.0994 | 0.991
293.15 K, 101 kPa, x1 = 0.1318 | 1.087
294.75 K, 101 kPa, x1 = 0.0219 | 0.9356
294.75 K, 101 kPa, x1 = 0.04201 | 1.072
294.75 K, 101 kPa, x1 = 0.05343 | 1.101
294.75 K, 101 kPa, x1 = 0.0565 | 1.157
298.15 K, 100 kPa, x1 = 0.00045 | 0.911
298.15 K, 100 kPa, x1 = 0.0009 | 0.927
298.15 K, 100 kPa, x1 = 0.0013 | 0.94
298.15 K, 101 kPa, x1 = 0.0003802 | 0.8909
298.15 K, 101 kPa, x1 = 0.0009168 | 0.8918
298.15 K, 101 kPa, x1 = 0.001355 | 0.8925
298.15 K, 101 kPa, x1 = 0.00169 | 0.893
298.15 K, 101 kPa, x1 = 0.001993 | 0.8935
298.15 K, 101 kPa, x1 = 0.00247 | 0.8943
298.15 K, 101 kPa, x1 = 0.00308 | 0.895
298.15 K, 101 kPa, x1 = 0.003109 | 0.8953
298.15 K, 101 kPa, x1 = 0.00368 | 0.8962
298.15 K, 101 kPa, x1 = 0.0259 | 0.939
298.15 K, 101 kPa, x1 = 0.0389 | 0.969
298.15 K, 101 kPa, x1 = 0.05204 | 1.035
298.15 K, 101 kPa, x1 = 0.08275 | 1.088
298.15 K, 101 kPa, x1 = 0.1302 | 1.252
298.15 K, 101 kPa, x1 = 0.156 | 1.348
298.15 K, 101 kPa, x1 = 0.2047 | 1.561
303.15 K, 100 kPa, x1 = 0.00045 | 0.824
303.15 K, 100 kPa, x1 = 0.0009 | 0.839
303.15 K, 100 kPa, x1 = 0.0013 | 0.849
303.15 K, 101 kPa, x1 = 0.000464 | 0.798
303.15 K, 101 kPa, x1 = 0.001107 | 0.799
303.15 K, 101 kPa, x1 = 0.001607 | 0.7999
303.15 K, 101 kPa, x1 = 0.002024 | 0.8005
303.15 K, 101 kPa, x1 = 0.002271 | 0.8009
303.15 K, 101 kPa, x1 = 0.002742 | 0.8016
303.15 K, 101 kPa, x1 = 0.003158 | 0.8024
303.15 K, 101 kPa, x1 = 0.003416 | 0.8028
308.15 K, 100 kPa, x1 = 0.00045 | 0.744
308.15 K, 100 kPa, x1 = 0.0009 | 0.755
308.15 K, 100 kPa, x1 = 0.0013 | 0.77
308.15 K, 101 kPa, x1 = 0.0003775 | 0.7197
308.15 K, 101 kPa, x1 = 0.0006463 | 0.7201
308.15 K, 101 kPa, x1 = 0.001149 | 0.721
308.15 K, 101 kPa, x1 = 0.001425 | 0.7214
308.15 K, 101 kPa, x1 = 0.001907 | 0.7223
308.15 K, 101 kPa, x1 = 0.002218 | 0.7227
308.15 K, 101 kPa, x1 = 0.002872 | 0.7238
308.15 K, 101 kPa, x1 = 0.003309 | 0.7246
308.15 K, 101 kPa, x1 = 0.018 | 0.65
308.15 K, 101.33 kPa, x1 = 0.0177 | 0.7612
308.15 K, 101.33 kPa, x1 = 0.03479 | 0.7944
308.15 K, 101.33 kPa, x1 = 0.05127 | 0.8302
308.15 K, 101.33 kPa, x1 = 0.06723 | 0.8754
308.15 K, 101.33 kPa, x1 = 0.08263 | 0.916
308.15 K, 101.33 kPa, x1 = 0.09755 | 0.9544
308.15 K, 101.33 kPa, x1 = 0.112 | 1.02
308.15 K, 101.33 kPa, x1 = 0.126 | 1.049
308.15 K, 101.33 kPa, x1 = 0.1395 | 1.077
313.15 K, 100 kPa, x1 = 0.00045 | 0.678
313.15 K, 100 kPa, x1 = 0.0009 | 0.692
313.15 K, 100 kPa, x1 = 0.0013 | 0.712
313.15 K, 101.33 kPa, x1 = 0.0177 | 0.6912
313.15 K, 101.33 kPa, x1 = 0.03479 | 0.7169
313.15 K, 101.33 kPa, x1 = 0.05127 | 0.7568
313.15 K, 101.33 kPa, x1 = 0.06723 | 0.7895
313.15 K, 101.33 kPa, x1 = 0.08263 | 0.8365
313.15 K, 101.33 kPa, x1 = 0.09755 | 0.8702
313.15 K, 101.33 kPa, x1 = 0.112 | 0.914
313.15 K, 101.33 kPa, x1 = 0.126 | 0.9479
313.15 K, 101.33 kPa, x1 = 0.1395 | 0.9819
318.15 K, 101 kPa, x1 = 0.018 | 0.533
318.15 K, 101.33 kPa, x1 = 0.0177 | 0.6293
318.15 K, 101.33 kPa, x1 = 0.03479 | 0.6557
318.15 K, 101.33 kPa, x1 = 0.05127 | 0.6939
318.15 K, 101.33 kPa, x1 = 0.06723 | 0.7263
318.15 K, 101.33 kPa, x1 = 0.08263 | 0.7712
318.15 K, 101.33 kPa, x1 = 0.09755 | 0.7978
318.15 K, 101.33 kPa, x1 = 0.112 | 0.8423
318.15 K, 101.33 kPa, x1 = 0.126 | 0.8735
318.15 K, 101.33 kPa, x1 = 0.1395 | 0.9047
323.15 K, 101.33 kPa, x1 = 0.0177 | 0.5841
323.15 K, 101.33 kPa, x1 = 0.03479 | 0.6023
323.15 K, 101.33 kPa, x1 = 0.05127 | 0.6485
323.15 K, 101.33 kPa, x1 = 0.06723 | 0.6694
323.15 K, 101.33 kPa, x1 = 0.08263 | 0.7012
323.15 K, 101.33 kPa, x1 = 0.09755 | 0.7261
323.15 K, 101.33 kPa, x1 = 0.112 | 0.7788
323.15 K, 101.33 kPa, x1 = 0.126 | 0.803
323.15 K, 101.33 kPa, x1 = 0.1395 | 0.8273

From the CheMixHub viscosity set
